Test results published in publication PMC7018034, “Antimicrobial activity of Ib-M peptides against Escherichia coli O157: H7” (PLoS ONE, 2020).
Values after ≈ are worked out from the molar mass of the structure shown. Values joined by “and” are separate entries in the source; they are usually repeats but may differ in a detail not shown here. Equal entries are not always repeated. Ends that are not written are not given here.

Key:
[1] = tested on: E. coli O157: H7 (ATCC 43888); assay: microbe, parasite or virus in culture; assay type: cell-based, Escherichia coli O157: H7; settings: for SI (selectivity index) E. coli O157: H7 ATCC 43888: ratio CC50 in VERO cells / MIC in ATCC 43888, maximum evaluated concentration used where CC50 not determined
Method: (§1) MIC was determined using the microdilution method as described in protocol M07-A9 of the Clinical and Laboratory Standards Institute. Briefly, 1:2 serial dilutions of Ib-M peptides in MHB were placed in a 96-well round-bottom plate at concentrations ranging from 100 to 0.05 μM; or reference antibiotics STP and GNT between 200 to 0.1 μM. The bacterial inoculum was prepared from a subculture of E. coli O157: H7 (ATCC 43888 or AC188) in LBB incubated for 18–24 hours at 35 ± 2°C before to the test. The bacteria suspension was diluted to 1x10^8 colony forming units (CFU)/mL, to obtain a turbidity equivalent to 0.5 on the McFarland scale, confirmed by spectrophotometry upon reaching an absorbance between 0.08–0.1 at a wavelength of 625 nm; then a 1:200 dilution in MHB was performed to obtain a final concentration of 5x10^5 CFU/mL. The diluted bacterial suspension was added to the 96-well plate containing the serially diluted peptides. The final volume of 200 μL per well consisted of 100 μl of the compound and 100 μL of diluted bacteria suspension. Negative and positive growth controls were performed by adding only MHB or E. coli O157: H7 with MHB to the wells, respectively. At the end of the incubation time, MIC was determined as the lowest compound concentration at which no bacterial growth was observed.

[2] = tested on: E. coli O157: H7 clinical isolate (AC188); assay: microbe, parasite or virus in culture; assay type: cell-based, Escherichia coli O157: H7; settings: for SI (selectivity index) E. coli O157: H7 AC188: ratio CC50 in VERO cells / MIC in AC188, maximum evaluated concentration used where CC50 not determined
Method: as §1

[3] = tested on: E. coli O157: H7 (ATCC 43888); assay: microbe, parasite or virus in culture; assay type: cell-based, Escherichia coli O157: H7
Method: (§2) MBC was determined as described in the M26-A protocol of the CLSI, 1999 [13]. […] Blood agar cultures were incubated at 35 ± 2°C for 18–24 hours, and the number of CFU was estimated.

[4] = tested on: E. coli O157: H7 clinical isolate (AC188); assay: microbe, parasite or virus in culture; assay type: cell-based, Escherichia coli O157: H7
Method: as §2

VERO cells (ATCC CCL-81) = assay: Cytotoxicity, MTT; assay type: cell-based; settings: 24 h exposure, 595 nm, mean ± S.D., triplicate in two independent experiments
Method: VERO cells at a concentration of 3x10^4 cells/mL were plated in 96 flat-bottom wells and incubated for 24 hours at 37°C in a 5% CO2 atmosphere. Subsequently, the cells were exposed to 1:2 serial dilutions of Ib-M peptides in the range from 400 to 1.6 μM and the reference antibiotics between 3200 and 1.6 μM. Control cells were maintained without peptides or reference antibiotics. After 24 hours of incubation, VERO cells viability was determined using the MTT (3- (4,5-dimethiazol-2-yl) -2,5-diphenyltetrazole bromide) colorimetric technique (Mosmann, 1983). To do so, 20 μL/well of MTT was added at a concentration of 5 mg/mL and incubated for 4 hours. After that time, the culture medium was removed from the wells, and 100 μL of dimethylsulfoxide was added to solubilize the formazan crystals. Absorbance was determined by spectrophotometry using a wavelength of 595 nm.
The 50% cytotoxic concentrations (CC50) were calculated by sigmoid regression analysis from the inhibition percentages using the XLFit program (^©2019 IDBS). The Selectivity Index (SI) was calculated as the ratio between CC50 in VERO cells and the MICs in E. coli O157: H7 [17]. For those compounds whose CC50 could not be determined, the maximum evaluated concentration was used to calculate the respective SI.

[5] = tested on: E. coli O157: H7 (ATCC 43888); assay type: cell-based, Escherichia coli O157: H7; settings: lag phase, 0.5xMIC, at 24 hour, turbidity at 595 nm
Method: The kinetics of cell growth of E. coli O157: H7 in the presence of the peptides were followed during 24 hours. The tests were performed with the reference strain ATCC 43888, and the antibacterial activity of the compounds was evaluated in the latency phase (lag phase) and the logarithmic phase (log phase).
For the lag phase, E. coli O157: H7 at 5x10^5 CFU/mL with MHB in 96-well plate was treated with Ib-M peptides at a concentrations of 0.5xMIC, 1xMIC, 2xMIC in a final volume of 200 μL/well for 24 hours at 37°C. The turbidity was determined spectrophotometrically at 595 nm for samples taken at 0, 2, 4, 6, 8, 10, 12 and 24 hours.

E. coli = tested on: E. coli; set-up: method as in PMID 29671805, PMID 19952307; settings: in vitro activity reported against E. coli; cited from earlier work
[6] = strain ATCC 43888, MHB, 5x10^5 CFU/mL, mean ± S.D., triplicate in two independent experiments
[7] = clinical isolate AC188, MHB, 5x10^5 CFU/mL, mean ± S.D., triplicate in two independent experiments
[8] = strain ATCC 43888, colony count <= 10 on blood agar, mean ± S.D., triplicate in two independent experiments
[9] = clinical isolate AC188, colony count <= 10 on blood agar, mean ± S.D., triplicate in two independent experiments

CNC(C)C1CCC(N)C(OC2C(N)CC(N)C(OC3OCC(C)(O)C(NC)C3O)C2O)O1 (stereo not shown) [GNT, Gentamicin, reference compound]
MIC ([1]; Escherichia coli, ATCC43888): 1.8 ± 0.6 µM (≈ 0.86 µg/mL) | SI (selectivity index) E. coli O157: H7 ATCC 43888 [1]: >1777.8 | MIC ([2]; Escherichia coli): 2.3 ± 0.9 µM (≈ 1.1 µg/mL) | SI (selectivity index) E. coli O157: H7 AC188 [2]: >1391.3 | MBC ([3]; Escherichia coli, ATCC43888): 4.7 ± 1.7 µM (≈ 2.24 µg/mL) | MBC ([4]; Escherichia coli): 4.2 ± 1.6 µM (≈ 2.01 µg/mL) | CC50 VERO Cells (VERO cells (ATCC CCL-81)): > 3200 µM and >3200 ± 0 µM

[H]/N=C(/N)N[C@H]1[C@H](O)[C@@H](O)[C@H](O[C@@H]2O[C@@H](C)[C@](O)(C=O)[C@H]2O[C@@H]2O[C@@H](CO)[C@H](O)[C@@H](O)[C@@H]2NC)[C@@H](N/C(N)=N\[H])[C@@H]1O [STP, Streptomycin, reference compound]
MIC ([1]; Escherichia coli, ATCC43888): 9.4 µM (≈ 5.47 µg/mL) | SI (selectivity index) E. coli O157: H7 ATCC 43888 [1]: >340.4 | MIC [1, 6]: 9.4 ± 3.4 µM (≈ 5.47 µg/mL) | MIC ([2]; Escherichia coli): 66.7 µM (≈ 38.8 µg/mL) | MIC [2, 7]: 66.7 ± 25.8 µM (≈ 38.8 µg/mL) | SI (selectivity index) E. coli O157: H7 AC188 [2]: >48 | MBC ([3]; Escherichia coli, ATCC43888): 11.5 µM (≈ 6.69 µg/mL) | MBC [3, 8]: 11.5 ± 2.6 µM (≈ 6.69 µg/mL) | MBC ([4]; Escherichia coli): 108 µM (≈ 63 µg/mL) | MBC [4, 9]: 108.3 ± 49.2 µM (≈ 63 µg/mL) | CC50 VERO Cells (VERO cells (ATCC CCL-81)): >3200 ± 0 µM

EWGRRMMGRGPGRRMMRRWW-NH2 [Ib-M4]
MIC [1, 6]: 12.5 ± 0.0 µM | MIC [2, 7]: 6.3 ± 0.0 µM | MBC [3, 8]: 22.9 ± 5.1 µM | MBC [4, 9]: 15.6 ± 10.3 µM | CC50 VERO Cells (VERO cells (ATCC CCL-81)): > 400 ± 0.0 µM

EWGRRMMGRGPGRRMMRWWR-NH2 [Ib-M1]
MIC [1, 6]: 4.7 ± 1.7 µM | MIC [2, 7]: 1.6 ± 0.0 µM | MBC [3, 8]: 6.3 ± 0.0 µM | MBC [4, 9]: 3.7 ± 1.3 µM | CC50 VERO Cells (VERO cells (ATCC CCL-81)): 395.2 ± 18.3 µM | percentage of E. coli growth inhibition [5]: higher than 63%

EWGRRMMGWGRGRRMMRRWW-NH2 [Ib-M6]
MIC [1, 6]: 9.4 ± 3.4 µM | MIC [2, 7]: 4.7 ± 1.7 µM | MBC [3, 8]: 11.5 ± 7.3 µM | MBC [4, 9]: 10.4 ± 3.2 µM | CC50 VERO Cells (VERO cells (ATCC CCL-81)): 310.9 ± 4.4 µM

EWGRRMMGWRPGRRMMRRWW-NH2 [Ib-M5]
MIC [1, 6]: 8.3 ± 3.2 µM | MIC [2, 7]: 4.7 ± 1.7 µM | MBC [3, 8]: 15.6 ± 7.7 µM | MBC [4, 9]: 7.3 ± 2.6 µM | CC50 VERO Cells (VERO cells (ATCC CCL-81)): 315.3 ± 49.1 µM

EWGRRMMGWRPGRRMMRWWR-NH2 [Ib-M2]
MIC [1, 6]: 4.7 ± 1.7 µM | MIC [2, 7]: 3.7 ± 1.28 µM | MBC [3, 8]: 6.8 ± 3.1 µM | MBC [4, 9]: 4.2 ± 1.6 µM | CC50 VERO Cells (VERO cells (ATCC CCL-81)): 197.5 ± 2.4 µM

lactoferricin
MIC (E. coli): 2 µM

magainin 2
MIC (E. coli): 8 µM
